From patent US9622469B2, “Crosslink breakers for preservation of biological substances” (priority 2013, dated 2017)
Marks after values point to notes of the source that are not given here.

Columns and labels:
[1] = various animal studies and clinical trials; cited from earlier work
[2] = tested on: AGE precursor (α-dicarbonyl) on RBCs; assay: AGE precursor (α-dicarbonyl) levels on stored RBCs (dicarbonyl-specific fluorophore); type: cell-based, mouse; settings: typical storage conditions, up to 14 days
Description: Leuko-reduced mouse blood was stored under typical storage conditions for up to 14 days, in either OCR6043, control compound, or without any treatment. FIG. 2A illustrates an analysis of glucose in the serum from the stored blood was evaluated using a glucose oxidase enzymatic assay. […] FIG. 2B illustrates the AGE precursor levels on RBCs were measured using a dicarbonyl-specific fluorophore that was developed in-house. The time dependent increase in the AGE precursor levels was dampened in the presence of OCR6043. FIG. 2C illustrates mouse blood that was stored for 14 days, was evaluated for its immunogenicity upon transfusion, by testing for IgGs against an alloantigen on the RBCs (HOD=HEL-OVA-Duffy).

[3] = Trapping of methylglyoxal under physiological conditions (PBS); type: biochemical; settings: 37° C., 24 hours, MGO at pathologically relevant concentration (4-6 μM)
Description: For trapping under physiological conditions (FIG. 5), 12.5 μl of 2 (40 mM stock) and 7.7 μl of MGO (6.5 mM stock) were added to PBS (4.98 ml) and kept stirred at 37° C. At stated times, 445 μl of the reaction mixture was taken, quenched with 1 M HCl (5 μl) and analyzed by LCMS after adding 50 μl of 3 mM 4-methoxybenzhydrol as an internal standard. Yield of ALT-MGO (20) was determined by peak integration (m/z=304) against a calibration curve.
Recognizing the reaction conditions employed above were non-physiological, we wanted to test if ALT-711 could efficiently trap methylglyoxal (MGO, 17) at a pathologically relevant concentration (4-6 μM). We obtained ALT-MOO adduct (20) in PBS with a 53% yield at 24 hours (FIG. 5B). […] The trapping of MGO by ALT-711 may be the mechanism for the observed effects.

[4] = NHC-mediated reaction with α-keto aldehyde methylglyoxal (17), Method B; type: biochemical; settings: isolated yield with respect to 2
Description: 60 mM solution of dicarbonyl substrate (45 μmol) in MeCN (0.75 ml) was added to 20 mM solution of NHC (15 μmol) in 0.15 M pH 7.4 sodium phosphate buffer (0.75 ml) and kept stirred at 37° C. At stated times, 75 μl aliquots were taken, diluted with 50% MeCN/H2O (425 μl) and analyzed by LCMS with 2,4-dihydroxyquinoline (248 μM) as an internal standard. The cleavage products were quantified by peak integration against the calibration curves.
Four diastereomers (ALT-MGO-1 through ALT-MGO-4) were obtained with a similar method to ALT-PG using 2 (100 mg, 0.37 mmol) and 40% methylglyoxal (MOO, 17) solution (0.2 ml, 1.3 mmol, 3.5 eq). Purification was performed by HPLC (9-19% MeCN over 32 min), and the lyophilization of fractions afforded the title compounds as white solids (96% combined yield). See Supplementary Material for characterization data.
Reactions involving α-keto aldehyde derivatives 16 and 17 followed an unexpected course. Treatment of these substrates with 2 led to instantaneous, high-yield production of a diastercomeric mixture of cycloadducts (19 and 20) that decompose to complex mixtures under the reaction conditions with half-lives of approximately 3 h Structures were determined based on in-depth NMR analysis (see Supplementary Material).

[5] = Cleavage of PPD by NHC precursors, Method A (alcoholic co-solvent); type: biochemical; settings: co-solvent MeOH
Description: Dicarbonyl cleavage reactions were performed using either the method described in Vasan et al., An agent cleaving glucose-derived protein crosslinks in vitro and in vivo, Nature (1996) Vol. 382, pp. 275-278 (Method A) or a modified method with MeCN as a co-solvent (Method B).
PPD (21 μl, 156 μmol) was added to a murky solution of NHC (2 or 4, 71 μmol) in 50% MeOH/0.5 M pH 7.4 sodium phosphate buffer (3.5 ml/3.5 ml; final conc. 10 mM NHC, 22 mM PPD) and kept stirred at 37° C. Approximately 0.5 ml aliquots were taken at stated times and analyzed by HPLC. Experiments using EtOH or iPrOH as a co-solvent were done in the same manner. Concentrations of benzoic acid and benzoate esters were determined by peak integration against the calibration curves.
Having learned that ALT-711 performed best among NHCs evaluated for PPD cleavage, we sought to test its substrate scope versus its N-benzyl counterpart (4). We therefore measured product distribution and yield while varying the co-solvent used to solubilize dicarbonyl substrates. As summarized in Table 2, we first investigated the performance of alcoholic co-solvents in PPD cleavage reactions. […] Despite this, however, the product distributions differed substantially: ALT-711 (2) predominantly afforded benzoic acid (PhCO2H:PhCO2Me=3.2:1, Entry 2), whereas 4 mostly gave rise to methyl benzoate (PhCO2H:PhCO2Me=1:2.2, Entry 4). Further replacement of the co-solvent with EtOH and i-PrOH in 4-catalyzed reactions led to a decrease in the proportion of ester production, still without altering overall yield (Entries 5 and 6).

SMILES: Cc1sc[n+](CC(=O)c2ccccc2)c1C.[Cl-] [Compound 2]
- Toxicity to animals and humans [1]: non-toxic
- Time dependent increase in AGE precursor levels on RBCs [2]: dampened
- Yield of ALT-MGO adduct (20) [3]: 53%
- % Yield of cycloadduct 20 from substrate 17 [4]: 96^b %
- Combined % Yield (PhCO2H, PhCO2Me) [5]: 54%
